Laboratory results reported in US20100298141A1, “SUBSTITUTED PYRIDINE N-OXIDE HERBICIDES” (E. I. DU PONT DE NEMOURS AND COMPANY, priority 2007, published 2010).

Legend:
[1] = test system: ducksalad; experiment: Test E flooded paddy test; format: in vivo, Heteranthera limosa; details: Flood, after 21 days, scale 0 to 100
Text: (§1) Three plastic pots (ca. 16-cm diameter) per rate were partially filled with sterilized Tama silt loam soil comprising a 35:50:15 ratio of sand, silt and clay and 2.6% organic matter. Separate plantings for each of the three pots were as follows. Seeds from the U.S. of ducksalad (Heteranthera limosa), smallflower umbrella sedge (Cyperus difformis) and purple […] coccinea), were planted into one 16-cm pot for each rate. […] Seeds from the U.S. of barnyardgrass (Echinochloa crus-galli), late watergrass (Echinochloa oryzicola), early watergrass (Echinochloa oryzoides) and junglerice (Echinochloa colona) were planted into one 16-cm pot for each rate. Plantings were sequential so that crop and weed species were at the 2.0 to 2.5-leaf stage at time of treatment. Potted plants were grown in a greenhouse with day/night temperature settings of 30/27° C., and supplemental balanced lighting was provided to maintain a 16-hour photoperiod. Test pots were maintained in the greenhouse until test completion. At time of treatment, test pots were flooded to 3 cm above the soil surface, treated by application of test compounds directly to the paddy water, and then maintained at that water depth for the duration of the test. Effects of treatments on rice and weeds were visually evaluated by comparison to untreated controls after 21 days. […] A dash (-) response means no test result.

[2] = test system: smallflower umbrella sedge; experiment: Test E flooded paddy test; format: in vivo, Cyperus difformis; details: Flood, after 21 days, scale 0 to 100
Text: as §1

[3] = test system: purple redstem; experiment: Test E flooded paddy test; format: in vivo, Ammannia coccinea; details: Flood, after 21 days, scale 0 to 100
Text: as §1

[4] = test system: rice flatsedge; experiment: Test E flooded paddy test; format: in vivo, Cyperus iria; details: Flood, after 21 days, scale 0 to 100
Text: as §1

[5] = test system: bearded sprangletop; experiment: Test E flooded paddy test; format: in vivo, Leptochloa fascicularis; details: Flood, after 21 days, scale 0 to 100
Text: as §1

[6] = test system: transplanted rice seedlings; experiment: Test E flooded paddy test; format: in vivo, Oryza sativa cv. ‘Japonica-M202’; details: Flood, after 21 days, scale 0 to 100
Text: as §1

[7] = test system: early watergrass; experiment: Test E flooded paddy test; format: in vivo, Echinochloa oryzoides; details: Flood, after 21 days, scale 0 to 100
Text: as §1

[8] = test system: junglerice; experiment: Test E flooded paddy test; format: in vivo, Echinochloa colona; details: Flood, after 21 days, scale 0 to 100
Text: as §1

[9] = test system: giant foxtail (SETFA); experiment: Test H preemergence mixtures of compound 2 with crop safeners; format: in vivo, Setaria faberi; design: key to SETFA Obsd. (observed effect): observed % effect, visually evaluated vs controls
Text: (§2) Seeds of test plants consisting of winter wheat (TRZAW, Triticum aestivum), corn (ZEAMD, Zea mays cv. ‘Pioneer 33G26’), giant foxtail (SETFA, Setaria faberi), and Italian ryegrass (LOLMU, Lolium multiflorum) were planted into a blend of loam soil and sand and treated preemergence with a directed soil spray using test chemicals formulated in a non-phytotoxic solvent mixture that included a surfactant. Seeds of small-seeded species were planted about 1 cm deep; larger seeds were planted about 2.5 cm deep. […] Balanced fertilizer was applied through the watering system. Treatments consisted of Compound 2 and the above mentioned safeners alone and in combination using a spray volume of 457 L/ha. Each treatment was replicated four times. Treated plants and controls were maintained in a greenhouse for 14 to 21 days, after which time all species were compared to controls and visually evaluated. […] A dash (-) response means no test result. Colby's Equation was used to determine the herbicidal effects expected from the mixtures. Colby's Equation (Colby, S. […] wherein • Pa+b is the percentage effect of the mixture expected from additive contribution of the individual components, • Pa is the observed percentage effect of the first active ingredient at the same use rate as in the mixture, and • Pb is the observed percentage effect of the second active ingredient at the same use rate as in the mixture.

[10] = test system: Italian ryegrass (LOLMU); experiment: as above; format: in vivo, Lolium multiflorum; design: key to LOLMU Obsd. (observed effect): observed % effect, visually evaluated vs controls
Text: as §2

[11] = test system: winter wheat (TRZAW); experiment: Test I preemergence mixtures of compound 2 with crop safeners; format: in vivo, Triticum aestivum; details: alone
Text: (§3) Seeds of test plants consisting of winter wheat (TRZAW, Triticum aestivum), corn (ZEAMD, Zea mays cv. ‘Pioneer 33G26’), wild oat (AVEFA, Avena fatua), and Italian ryegrass (LOLMU, Lolium multiflorum) were planted into a blend of loam soil and sand and treated preemergence with a directed soil spray using test chemicals formulated in a non-phytotoxic solvent mixture that included a surfactant. Seeds of small-seeded species were planted about 1 cm deep; larger seeds were planted about 2.5 cm deep. […] Balanced fertilizer was applied through the watering system. Treatments consisted of Compound 2 and the above mentioned safeners alone and in combination using a spray volume of 457 L/ha. Each treatment was replicated four times. Treated plants and controls were maintained in a greenhouse for 14 to 21 days, after which time all species were compared to controls and visually evaluated. […] A dash (-) response means no test result. Colby's Equation was used to determine the herbicidal effects expected from the mixtures. Colby's Equation (Colby, S. […] Pa+b=Pa+Pb−(PaPb/100) wherein • Pa+b is the percentage effect of the mixture expected from additive contribution of the individual components, • Pa is the observed percentage effect of the first active ingredient at the same use rate as in the mixture, and • Pb is the observed percentage effect of the second active ingredient at the same use rate as in the mixture.

[12] = test system: wild oat (AVEFA); experiment: as above; format: in vivo, Avena fatua; details: alone
Text: as §3

[13] = Cmpd 2 alone 125 g a.i./ha, scale 0 to 100, mean of four replicates

Cn1nc(C(F)(F)F)c(C[S+]([O-])c2cc(Br)cc[n+]2[O-])c1Cl (racemic) [Compound 35]
Plant response rating, Ducksalad ([1]; 16 g ai/ha): 0
Plant response rating, Ducksalad ([1]; 32 g ai/ha): 40
Plant response rating, Ducksalad ([1]; 64 g ai/ha): 50
Plant response rating, Ducksalad ([1]; 125 g ai/ha): 60
Plant response rating, Ducksalad ([1]; 250 g ai/ha): 100
Plant response rating, Sedge, Umbrella ([2]; 16 g ai/ha): 0
Plant response rating, Sedge, Umbrella ([2]; 32 g ai/ha): 45
Plant response rating, Sedge, Umbrella ([2]; 64 g ai/ha): 85
Plant response rating, Sedge, Umbrella ([2]; 125 g ai/ha): 85
Plant response rating, Sedge, Umbrella ([2]; 250 g ai/ha): 100
Plant response rating, Redstem ([3]; 16 g ai/ha): 0
Plant response rating, Redstem ([3]; 32 g ai/ha): 45
Plant response rating, Redstem ([3]; 64 g ai/ha): 85
Plant response rating, Redstem ([3]; 125 g ai/ha): 85
Plant response rating, Redstem ([3]; 250 g ai/ha): 100
Plant response rating, Flatsedge, Rice ([4]; 16 g ai/ha): 0
Plant response rating, Flatsedge, Rice ([4]; 32 g ai/ha): 30
Plant response rating, Flatsedge, Rice ([4]; 64 g ai/ha): 70
Plant response rating, Flatsedge, Rice ([4]; 125 g ai/ha): 80
Plant response rating, Flatsedge, Rice ([4]; 250 g ai/ha): 95
Plant response rating, Sprangletop, Brdd. ([5]; 16 g ai/ha): 0
Plant response rating, Sprangletop, Brdd. ([5]; 32 g ai/ha): 90
Plant response rating, Sprangletop, Brdd. ([5]; 64 g ai/ha): 90
Plant response rating, Sprangletop, Brdd. ([5]; 125 g ai/ha): 90
Plant response rating, Sprangletop, Brdd. ([5]; 250 g ai/ha): 90
Plant response rating, Rice, Transplanted ([6]; 16 g ai/ha): 0
Plant response rating, Rice, Transplanted ([6]; 32 g ai/ha): 0
Plant response rating, Rice, Transplanted ([6]; 64 g ai/ha): 0
Plant response rating, Rice, Transplanted ([6]; 125 g ai/ha): 15
Plant response rating, Rice, Transplanted ([6]; 250 g ai/ha): 15
Plant response rating, Watergrass, Early ([7]; 16 g ai/ha): 0
Plant response rating, Watergrass, Early ([7]; 32 g ai/ha): 0
Plant response rating, Watergrass, Early ([7]; 64 g ai/ha): 0
Plant response rating, Watergrass, Early ([7]; 125 g ai/ha): 20
Plant response rating, Watergrass, Early ([7]; 250 g ai/ha): 40
Plant response rating, Junglerice ([8]; 16 g ai/ha): 0
Plant response rating, Junglerice ([8]; 32 g ai/ha): 0
Plant response rating, Junglerice ([8]; 64 g ai/ha): 0
Plant response rating, Junglerice ([8]; 125 g ai/ha): 0
Plant response rating, Junglerice ([8]; 250 g ai/ha): 40

C#CCOc1c(C[S+]([O-])c2cccc[n+]2[O-])c(C(F)(F)F)nn1C (centres unmarked) [Compound 76]
Plant response rating, Ducksalad ([1]; 64 g ai/ha): 40
Plant response rating, Ducksalad ([1]; 125 g ai/ha): 40
Plant response rating, Ducksalad ([1]; 250 g ai/ha): 40
Plant response rating, Ducksalad ([1]; 500 g ai/ha): 95
Plant response rating, Ducksalad ([1]; 1000 g ai/ha): 95
Plant response rating, Sedge, Umbrella ([2]; 64 g ai/ha): 60
Plant response rating, Sedge, Umbrella ([2]; 125 g ai/ha): 90
Plant response rating, Sedge, Umbrella ([2]; 250 g ai/ha): 95
Plant response rating, Sedge, Umbrella ([2]; 500 g ai/ha): 95
Plant response rating, Sedge, Umbrella ([2]; 1000 g ai/ha): 95
Plant response rating, Redstem ([3]; 64 g ai/ha): 0
Plant response rating, Redstem ([3]; 125 g ai/ha): 40
Plant response rating, Redstem ([3]; 250 g ai/ha): 95
Plant response rating, Redstem ([3]; 500 g ai/ha): 100
Plant response rating, Redstem ([3]; 1000 g ai/ha): 100
Plant response rating, Flatsedge, Rice ([4]; 64 g ai/ha): 85
Plant response rating, Flatsedge, Rice ([4]; 125 g ai/ha): 95
Plant response rating, Flatsedge, Rice ([4]; 250 g ai/ha): 95
Plant response rating, Flatsedge, Rice ([4]; 500 g ai/ha): 100
Plant response rating, Flatsedge, Rice ([4]; 1000 g ai/ha): 100
Plant response rating, Sprangletop, Brdd. ([5]; 64 g ai/ha): 20
Plant response rating, Sprangletop, Brdd. ([5]; 125 g ai/ha): 70
Plant response rating, Sprangletop, Brdd. ([5]; 250 g ai/ha): 70
Plant response rating, Sprangletop, Brdd. ([5]; 500 g ai/ha): 65
Plant response rating, Sprangletop, Brdd. ([5]; 1000 g ai/ha): 65
Plant response rating, Rice, Transplanted ([6]; 64 g ai/ha): 10
Plant response rating, Rice, Transplanted ([6]; 125 g ai/ha): 10
Plant response rating, Rice, Transplanted ([6]; 1000 g ai/ha): 40
Plant response rating, Watergrass, Early ([7]; 64 g ai/ha): 0
Plant response rating, Watergrass, Early ([7]; 125 g ai/ha): 50
Plant response rating, Watergrass, Early ([7]; 250 g ai/ha): 75
Plant response rating, Watergrass, Early ([7]; 500 g ai/ha): 100
Plant response rating, Watergrass, Early ([7]; 1000 g ai/ha): 100
Plant response rating, Junglerice ([8]; 64 g ai/ha): 0
Plant response rating, Junglerice ([8]; 125 g ai/ha): 60
Plant response rating, Junglerice ([8]; 250 g ai/ha): 75
Plant response rating, Junglerice ([8]; 500 g ai/ha): 100
Plant response rating, Junglerice ([8]; 1000 g ai/ha): 100

Cc1cc[n+]([O-])c(S(=O)(=O)Cc2c(C(F)(F)F)nn(C)c2OC(F)F)c1 [Compound 2]
Plant response rating SETFA Obsd. [9, 13]: 100
SETFA Obsd. (observed effect) ([9]; Test H, alone, 125 g a.i./ha): 100
Plant response rating LOLMU Obsd. [10, 13]: 53
LOLMU Obsd. (observed effect) ([10]; Test H, alone, 125 g a.i./ha): 53
TRZAW Obsd. (observed effect) ([11]; 125 g a.i./ha): 93
TRZAW Obsd. (observed effect) ([11]; 250 g a.i./ha): 100
AVEFA Obsd. (observed effect) ([12]; 125 g a.i./ha): 93
AVEFA Obsd. (observed effect) ([12]; 250 g a.i./ha): 96
